This is an account of results in patent US5834463A, “Condensed heterocyclic compounds, their production and use” (Takeda Chemical Industries, Ltd., priority 1994, dated 1998).

This experiment concerns the target T1, human GnRH receptor (Homo sapiens, UniProt P30968).
T1 construct: expressed in transfected cells; host or cells: CHO (Chinese Hamster Ovary) cells, membrane fraction
T1 sequence (P30968 1-328): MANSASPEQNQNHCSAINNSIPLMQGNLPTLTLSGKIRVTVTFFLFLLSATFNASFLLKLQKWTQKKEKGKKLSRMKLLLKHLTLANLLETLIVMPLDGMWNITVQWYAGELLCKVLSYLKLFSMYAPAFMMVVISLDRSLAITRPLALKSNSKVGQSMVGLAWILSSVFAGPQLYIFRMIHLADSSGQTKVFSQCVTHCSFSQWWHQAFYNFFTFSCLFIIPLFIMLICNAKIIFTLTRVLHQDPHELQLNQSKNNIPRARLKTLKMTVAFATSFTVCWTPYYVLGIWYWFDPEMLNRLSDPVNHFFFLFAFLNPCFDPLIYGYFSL
The experiment in a line: Test for inhibition of ^125 I-leuprorelin binding to human GnRH receptor. Conditions: membrane fraction of CHO cells expressing human GnRH receptors, 25° C., 60 minutes, read-out: Binding Inhibitory Activity (IC50, μM) for human GnRH receptor. As to the method:
(A) Preparation of ^125 I-leuprorelin
Ten μl of a 3×10^-4 M aqueous solution of leuprorelin and 10μl of 0.01 mg/ml lactoperoxidase in 0.1M Hepes buffer (pH7.4) were put in a tube, to which was added 10 μl of an Na^125 I solution (37 MBq). The mixture was stirred, to which was added 10 μl of 0.001% H2 O2, followed by allowing the reaction to proceed for 20 minutes at room temperature. To the reaction mixture was added 700 μl of a 0.05% TFA solution to stop the reaction. The product of was purified by means of a reverse-phase HPLC. Conditions of HPLC were as follows:
(D) Preparation of membrane fraction of CHO (Chinese Hamster Ovary) cells containing human GnRH receptors
CHO cells (10^9) expressing human GnRH receptors were suspended in a phosphate-buffered saline supplemented with 5 mM EDTA. The suspension was subjected to centrifugal separation for 5 minutes at 100×g. To the pellet of cells was added 10 ml of a homogenate buffer for cells (10 mM NaHCO3, 5 mM EDTA, pH 7.5), which was homogenated by using a Polytron homogenizer. Centrifugal separation was conducted for 15 minutes at 400×g. The supernatant was taken into an ultracentrifugal tube, which was subjected to centrifuge for one hour at 100,000×g to give precipitate of the membrane fraction. The precipitate was suspended in 2 ml of the assay buffer, which was centrifuged for one hour at 100,000×g. The membrane fraction recovered as precipitate was again suspended in 20 ml of the assay buffer, which was distributed to vials and stored at -80° C. until used.
(E) Determination of inhibitory rate of ^125 I-leuprorelin binding
In the cases of using rat and human pituitary membrane fractions prepared in (B) and (D), they were respectively diluted with the assay buffer to 200 μg/ml and 188 μl each was distributed to tubes. In the case of using bovine pituitary membrane fraction prepared in (C), it was diluted with the assay buffer to 750 μg/ml and 188 μl each was distributed into tubes. In the case where the membrane fraction of anterior lobes of rat pituitary gland was used, 2 μl of a 0.1 mM compound dissolved in 60% DMSO (dimethylsulfoxide) and 10 μl of 38 nM ^125 I-leuprorelin were added thereto simultaneously. In the case where the membrane fraction of anterior lobes of bovine pituitary gland and the membrane fraction derived from the CHO cells expressing human GnRH receptors were used, 2 μl of a 2 mM compound dissolved in 60% DMSO and 10 μl of 38 nM ^125 I-leuproprelin were added simultaneously. For determining the maximum binding amount, a solution for reaction supplemented with 2 μl of 60% DMSO and 10 μl of 38 nM ^125 I-leuprorelin was prepared. And, for determining the amount of non-specific binding, a solution for reaction supplemented with 2 μl of 100 μM leuprorelin dissolved in 60% DMSO and 10 μl of 38 nM ^125 I-leuprorelin were also prepared simultaneously.
In the cases where membrane fractions of anterior lobes of rat and bovine pituitary were used, reaction was allowed to proceed at 4° C. for 90 minutes, while in the case where the membrane fraction derived from the CHO cells expressing human GnRH receptor was used, reaction was allowed to proceed at 25° C. for 60 minutes. The reaction mixtures were respectively subjected to filtration under sucking with Whatman glass filter (GF-F) processed with polyethyleneimine. After completing the filtration, radioactivity of the ^125 I-leuprorelin remaining on the filter paper was measured with a γ-counter.
By calculation of (TB-SB)/(TB-NSB)×100 (SB: radioactivity obtained when a compound was added, TB: radioactivity for the maximum binding, NSB: radioactivity for the non-specific binding), the binding inhibitory rate of each test compound was determined. Besides, the inhibitory rates were determined by changing the concentrations of test compounds, and the concentration of a test compound inhibiting the specific binding by 50% (IC50 value) was calculated by way of Hill plot.
Turning to `O=C1c2ccc([N+](=O)[O-])cc2C(=O)N1CC(=O)N1c2ccccc2N(Cc2ccccc2)C(=O)[C@H]2CCC[C@H]21` (relative stereo) [compound 49], the IC50 is 2 µM. Then `O=C1c2ccccc2C(=O)N1CCC(=O)N1c2ccccc2N(Cc2ccccc2)C(=O)[C@H]2CCC[C@H]21` (relative stereo) [compound 50], with 24 µM; and `O=C1c2ccccc2C(=O)N1CCCC(=O)N1c2ccccc2N(Cc2ccccc2)C(=O)[C@H]2CCC[C@H]21` (relative stereo) [compound 51], with 12 µM; and `O=C1c2ccc(Cl)cc2C(=O)N1CC(=O)N1c2ccccc2N(Cc2ccccc2)C(=O)[C@H]2CCC[C@H]21` (relative stereo) [compound 69], with 2 µM. On to `O=C1c2ccc(F)cc2C(=O)N1CC(=O)N1c2ccccc2N(Cc2ccccc2)C(=O)[C@H]2CCC[C@H]21` (relative stereo) [compound 70], for which the IC50 came to 2 µM. With `Cc1ccc2c(c1)C(=O)N(CC(=O)N1c3ccccc3N(Cc3ccccc3)C(=O)[C@H]3CCC[C@H]31)C2=O` (relative stereo) [compound 71] the figure was 9 µM; with `O=C1c2cccc([N+](=O)[O-])c2C(=O)N1CC(=O)N1c2ccccc2N(Cc2ccccc2)C(=O)[C@H]2CCC[C@H]21` (relative stereo) [compound 72], 6 µM. Then `O=C1c2cccc(O)c2C(=O)N1CC(=O)N1c2ccccc2N(Cc2ccccc2)C(=O)[C@H]2CCC[C@H]21` (relative stereo) [compound 73], with 9 µM; and `O=C1c2cccc3cccc(c23)C(=O)N1CC(=O)N1c2ccccc2N(Cc2ccccc2)C(=O)[C@H]2CCC[C@H]21` (relative stereo) [compound 75], with 3 µM. Then `O=C1Cc2ccccc2C(=O)N1CC(=O)N1c2ccccc2N(Cc2ccccc2)C(=O)[C@H]2CCC[C@H]21` (relative stereo) [compound 77], with 5 µM; and `O=C1c2cccnc2C(=O)N1CC(=O)N1c2ccccc2N(Cc2ccccc2)C(=O)[C@H]2CCC[C@H]21` (relative stereo) [compound 78], with 5 µM; and `O=C1[C@H]2CC=CC[C@H]2C(=O)N1CC(=O)N1c2ccccc2N(Cc2ccccc2)C(=O)[C@H]2CCC[C@H]21` (relative stereo) [compound 80], with 9 µM. Take `COc1cc(OC)cc(C(=O)NCC(=O)N2c3ccccc3N(Cc3ccccc3)C(=O)[C@H]3CCC[C@H]32)c1` (relative stereo) [compound 87]: the IC50 was 16 µM. Then `Nc1cccc2c1C(=O)N(CC(=O)N1c3ccccc3N(Cc3ccccc3)C(=O)[C@H]3CCC[C@H]31)C2=O` (relative stereo) [compound 106], with 5 µM; and `COC(=O)c1ccc2c(c1)C(=O)N(CC(=O)N1c3ccccc3N(Cc3ccccc3)C(=O)[C@H]3CCC[C@H]31)C2=O` (relative stereo) [compound 108], with 8 µM; and `CC(=O)N(CC(=O)N1c2ccccc2N(Cc2ccccc2)C(=O)[C@H]2CCC[C@H]21)C(=O)c1ccccc1` (relative stereo) [compound 109], with 6 µM. In the case of `O=C1c2ccccc2C(=O)N1CC(=O)N1c2ccccc2N(Cc2cccc3ccccc23)C(=O)[C@H]2CCC[C@H]21` (relative stereo) [compound 113], the IC50 amounted to 1 µM. On to `O=C1c2ccccc2C(=O)N1CC(=O)N1c2ccccc2N(Cc2ccc3ccccc3c2)C(=O)[C@H]2CCC[C@H]21` (relative stereo) [compound 114], for which the IC50 is 0.6 µM. Then `O=C1c2ccccc2C(=O)N1CC(=O)N1c2ccccc2N(Cc2ccccn2)C(=O)[C@H]2CCC[C@H]21` (relative stereo) [compound 118], with 2 µM; and `O=C1c2ccccc2C(=O)N1CC(=O)N1c2ccccc2N(Cc2cccnc2)C(=O)[C@H]2CCC[C@H]21` (relative stereo) [compound 119], with 10 µM; and `O=C1c2ccccc2C(=O)N1CC(=O)N1c2ccccc2N(Cc2ccncc2)C(=O)[C@H]2CCC[C@H]21` (relative stereo) [compound 120], with 4 µM. Then `O=C1c2ccncc2C(=O)N1CC(=O)N1c2ccccc2N(Cc2ccccc2)C(=O)[C@H]2CCC[C@H]21` (relative stereo) [compound 128], with 15 µM.

For the compound `O=C1Cc2ccccc2N1CC(=O)N1c2ccccc2N(Cc2ccccc2)C(=O)[C@H]2CCC[C@H]21` (relative stereo) [compound 136], the IC50 is 15 µM. `O=C1[C@H]2CCC[C@H]2N(C(=O)CNCc2ccccc2)c2ccccc2N1Cc1ccccc1` (relative stereo) [compound 138]: the IC50 was 14 µM. With `CN(CC(=O)N1c2ccccc2N(Cc2ccccc2)C(=O)[C@H]2CCC[C@H]21)Cc1ccccc1` (relative stereo) [compound 139], the IC50 was 11 µM.

`O=C(c1ccccc1)N(CC(=O)N1c2ccccc2N(Cc2ccccc2)C(=O)[C@H]2CCC[C@H]21)Cc1ccccc1` (relative stereo) [compound 141]: the half-inhibitory concentration (IC50) was found to be 14 µM. With `O=C1c2ccccc2C(=O)N1CC(=O)N1c2ccccc2N(Cc2ccccc2)C(=O)[C@H]2CCCC[C@H]21` (relative stereo) [compound 168] the figure was 3 µM. `O=C1c2ccccc2C(=O)N1CC(=O)N1c2ccccc2N(Cc2ccc(Cl)cc2)C(=O)[C@H]2CCC[C@H]21` (relative stereo) [compound 169]: the half-inhibitory concentration (IC50) is 2 µM. Then `O=C1C2=C(CCCC2)C(=O)N1CC(=O)N1c2ccccc2N(Cc2cccc3ccccc23)C(=O)[C@H]2CCC[C@H]21` (relative stereo) [compound 170], with 0.6 µM; and `O=C1C2=C(CCCC2)C(=O)N1CC(=O)N1c2ccccc2N(Cc2ccc3ccccc3c2)C(=O)[C@H]2CCC[C@H]21` (relative stereo) [compound 171], with 0.3 µM. With `CC1=C(C)C(=O)N(CC(=O)N2c3ccccc3N(Cc3ccccc3)C(=O)[C@H]3CCC[C@H]32)C1=O` (relative stereo) [compound 173] the figure was 7 µM; with `O=C1C2=C(CCC2)C(=O)N1CC(=O)N1c2ccccc2N(Cc2ccccc2)C(=O)[C@H]2CCC[C@H]21` (relative stereo) [compound 176], 2 µM. Then `O=C1c2ccccc2C(=O)N1CC(=O)N1c2ccccc2N(Cc2ccc(-c3ccccc3)cc2)C(=O)[C@H]2CCC[C@H]21` (relative stereo) [compound 182], with 2 µM; and `O=C1c2ccccc2C(=O)N1CC(=O)N1c2ccccc2N(Cc2ccc3ccccc3n2)C(=O)[C@H]2CCC[C@H]21` (relative stereo) [compound 184], with 0.8 µM. Turning to `O=C1c2ccccc2C(=O)N1CC(=O)N1c2ccccc2N(Cc2ccc(F)cc2)C(=O)[C@H]2CCC[C@H]21` (relative stereo) [compound 191], the IC50 was 2 µM. Then `O=C1c2ccccc2C(=O)N1CC(=O)N1c2ccccc2N(Cc2ccccc2F)C(=O)[C@H]2CCC[C@H]21` (relative stereo) [compound 194], with 3 µM.

Usually IC50 stands for the concentration at which inhibition is half-maximal.
